The values below come from US20030073625A1, “Methods of preventing ventilator associated pneumonia by oral administration of antimicrobial IB-367 peptides” (priority 2001, published 2003).

Where no end group is shown, it is not given here.

The subject of one test is bacteria. The settings on record: repeated subcultures at one-half MIC; Steinberg et al., 1997; cited from earlier work.
Test [1] relates to polymicrobial flora of the oral cavity. Briefly: Microbicidal activity in human saliva. Type of test: cell-based.

Regarding “PG-1: protegrin peptide PG-1 (RGGRLCYCRRRFCVCVGR; ends and bridges not checked; cysteine pairing not given here; UniProt P32194 131-148, looked up)”, the development of resistance result in the test with bacteria is “did not result in the development of resistance”.

For the substance RGGLCYCRGRFCVCVGR [native IB-367], the “microbicidal activity in human saliva” value in test [1] is given as “retains its microbicidal activity”.
